Experimental data: ChEMBL document CHEMBL3243922, “Synthesis, redox characteristics, and in vitro norepinephrine uptake inhibiting properties of 2-(2-mercapto-4,5-dihydroxyphenyl)ethylamine (6-mercaptodopamine)” (J Med Chem, 1979)

How the values were obtained:
Conditions in all cases: in vivo
Rattus norvegicus [1] = assay: Pressor activity in iv dosed normotensive Sprague-Dawley rat assessed as dose required for increasing systolic blood pressure […] 30 mm Hg; format: organism-based, Artery
Rattus norvegicus [2] = assay: Neurotoxicity in Sprague-Dawley rat heart atria assessed as inhibition of [3H]norepinephrine uptake at 20 to 160 mg/kg, iv after 24 hrs by scintillation counting analysis; format: toxicity, organism-based; design: dose 20-160 mg/kg, route intravenous
Rattus norvegicus [3] = assay: Central neurotoxicity in iv dosed Sprague-Dawley rat brain hypothalamus assessed as inhibition of [3H]norepinephrine uptake after 24 hrs by scintillation counting analysis; format: organism-based
Rattus norvegicus [4] = assay: Neurotoxicity in Sprague-Dawley rat heart atria assessed as inhibition of [3H]norepinephrine uptake at 10 mg/kg, iv after 24 hrs by scintillation counting analysis; format: toxicity, organism-based; design: dose 10 mg/kg, route intravenous

| Compound | Activity (Rattus norvegicus [1]) | Activity (Rattus norvegicus [2]) | Activity (Rattus norvegicus [3]) | Activity (Rattus norvegicus [4]) |
| --- | --- | --- | --- | --- |
| CC(N)Cc1cc(O)c(O)cc1O (stereo not drawn) | 6 ×10⁻⁵ g |  |  |  |
| C[C@H](N)Cc1ccc(O)c(O)c1 | 3.1 µg |  |  |  |
| Cl.NCCc1cc(O)c(O)cc1S | 1.3 ×10⁻⁴ g | Toxic | Non-toxic |  |
| NCCc1ccc(O)c(O)c1 [DOPAMINE] | 2.9 µg |  |  |  |
| NCCc1cc(O)c(O)cc1O [OXIDOPAMINE] | 1.6 ×10⁻⁵ g |  |  | Toxic |
